# From patent US6214834A, “Integrin inhibitor prodrugs” (Dupont Pharmaceuticals Company, priority 1998, dated 2001)
# “And” between values parts separate entries of the source, which are not always exact repeats. Equal values may be shown once. Read-outs that look alike come from different tables or passages of the source.
# Assays:
# [1] = Surface tension measurements (DuNouy tensiometer); format: physicochemical; conditions: for Surface Tension: pH ~4, 22° C.
# Experimental: Surface activity behavior of the two prodrugs, SM192 and SD209 was examined using tensiometry. Stock solutions of each were prepared at a concentration of 0.06 M in water and dilutions were made using an aqueous solution of the corresponding salt counterion of the prodrug adjusted to a pH ~4. Surface tension measurements were run at 22° C. on a DuNouy tensiometer. Three measurements were run on each solution concentration.
# [2] = Plasma concentrations after i.v. bolus of SD209 in pigs (in vivo conversion of prodrug); set-up: species or system Yorkshire domestic swine
# Experimental: Data indicating conversion of the prodrug SD209 to the drug, SM256 once administered into circulation in vivo is represented in Table 5. The data in Table 5 id generated from intravenous administration of the prodrug, SD209, in pigs.
# SD209 was injected intravenously at a dose of 0.5 mg/kg and plasma was seperated after blood sampling at different intervals. Following solid phase extraction of the plasma, residues were chromatographed on a supelcosil ABZ HPLC column and detected by positive ion electrospray MS/MS using a Sciex API 300. This combination provides a specific assay for both SD209 and SM256. The linear range of the assay for SM256 was from 1 ng/ml to 2000 ng/ml. Plasma concentration data for both pigs are provided below
# [3] = Free solution electrophoretic mobility by capillary electrophoresis; format: physicochemical; conditions: for Electrophoretic Mobility: 400 V/cm, 25° C.
# Experimental: To obtain a preliminary indication of the feasibility of transdermal iontophoretic delivery and the possible dependence on pH, the solution mobilities of the methyl and choline esters were evaluated using capillary electrophoresis. Free solution mobilities were determined using a capillary electrophoresis instrument equipped with a u.v. detector and a cationic amine capillary column of 57 cm total length, 50 cm length to detector, 370 μm o.d.,50 μm i.d. Buffers used were pH 4.5 acetate, pH 6.0 MES and pH 8.0 TRIS. All buffer concentrations were 50 mM. Elution was at 400 V/cm and 25° C., and detection was at 214 nm. Compounds SM192 and SD209 were examined. Structures are given in Scheme 16. For each compound, 2 mg/mL stock solutions were prepared and diluted 1:1 with the running buffer. Therefore, electrophoretic mobility of compound SD209 is about two-fold higher than that of compound SM192 at all pH values examined.
# [4] = Partition coefficient estimated by HPLC method; format: physicochemical; conditions: estimated using an HPLC method; read-out: HPLC Log P
# [5] = pig 1, Time 10.0 hr, i.v. bolus 0.5 mg/kg of SD209
# [6] = pig 1, Time 14.0 hr, i.v. bolus 0.5 mg/kg of SD209
# [7] = pig 1, Time 24.0 hr, i.v. bolus 0.5 mg/kg of SD209
# [8] = pig 2, Time 7.0 hr, i.v. bolus 0.5 mg/kg of SD209
# [9] = pig 2, Time 10.0 hr, i.v. bolus 0.5 mg/kg of SD209
# [10] = pig 2, Time 14.0 hr, i.v. bolus 0.5 mg/kg of SD209
# [11] = pig 2, Time 24.0 hr, i.v. bolus 0.5 mg/kg of SD209
Surface Tension ([1]; Concentration 0.0015 M) [dynes/cm],Surface Tension ([1]; Concentration 0.003 M) [dynes/cm],Surface Tension ([1]; Concentration 0.010 M) [dynes/cm],Surface Tension ([1]; Concentration 0.015 M) [dynes/cm],Surface Tension ([1]; Concentration 0.030 M) [dynes/cm],Surface Tension ([1]; Concentration 0.045 M) [dynes/cm],Surface Tension ([1]; Concentration 0.054 M) [dynes/cm],Surface Tension ([1]; Concentration 0.06 M) [dynes/cm],"plasma conc. [2, 5]","plasma conc. [2, 6]","plasma conc. [2, 7]","plasma conc. [2, 8]","plasma conc. [2, 9]","plasma conc. [2, 10]","plasma conc. [2, 11]",Electrophoretic Mobility ([3]; pH 4.5 acetate buffer 50 mM),Electrophoretic Mobility ([3]; pH 6.0 MES buffer 50 mM),Electrophoretic Mobility ([3]; pH 8.0 TRIS buffer 50 mM),chromatographic logP [4],SMILES,further results
72.6 ± 0.06,72.4 ± 0.06,72.2 ± 0.2,67.4 ± 0.6,65.5 ± 0.5,61.9 ± 0.4,63.7 ± 0.4,61.2 ± 0.3,BQL,BQL,BQL,BQL,BQL,BQL,BQL,3.2 (cm^2 /v/sec) × 10^-4,3.0 (cm^2 /v/sec) × 10^-4,2.3 (cm^2 /v/sec) × 10^-4,0.95,Cc1cc(C)c(S(=O)(=O)NC(CNC(=O)c2ccc3c(cnn3CCCNc3ncc[nH]3)c2)C(=O)OCC[N+](C)(C)C)c(C)c1 (centres unmarked) [SD209],"critical micelle concentration (not attained up to) ([1]; no CMC attained even at the highest concentrations): > 0.6 M; plasma conc. ([2]; pig 1, Time 1.0 hr, i.v. bolus 0.5 mg/kg of SD209): BQL; plasma conc. ([2]; pig 1, Time 3.0 hr, i.v. bolus 0.5 mg/kg of SD209): BQL; plasma conc. ([2]; pig 1, Time 5.0 hr, i.v. bolus 0.5 mg/kg of SD209): BQL; plasma conc. ([2]; pig 1, Time 7.0 hr, i.v. bolus 0.5 mg/kg of SD209): BQL; plasma conc. ([2]; pig 2, Time 1.0 hr, i.v. bolus 0.5 mg/kg of SD209): BQL; plasma conc. ([2]; pig 2, Time 2.0 hr, i.v. bolus 0.5 mg/kg of SD209): BQL; plasma conc. ([2]; pig 2, Time 3.0 hr, i.v. bolus 0.5 mg/kg of SD209): BQL; plasma conc. ([2]; pig 2, Time 5.0 hr, i.v. bolus 0.5 mg/kg of SD209): BQL; concentration at 0 h ([2]; pig, plasma, iv, 0.5 mg/kg, pig 1, Time 0.00 hr, i.v. bolus 0.5 mg/kg of SD209, read-out: plasma conc.): < 2 ng/mL; concentration at 0.1 h ([2]; pig, plasma, iv, 0.5 mg/kg, pig 1, Time 0.1 hr, i.v. bolus 0.5 mg/kg of SD209, read-out: plasma conc.): 60 ng/mL; concentration at 0.25 h ([2]; pig, plasma, iv, 0.5 mg/kg, pig 1, Time 0.25 hr, i.v. bolus 0.5 mg/kg of SD209, read-out: plasma conc.): 20 ng/mL; concentration at 0 h ([2]; pig, plasma, iv, 0.5 mg/kg, pig 2, Time 0.00 hr, i.v. bolus 0.5 mg/kg of SD209, read-out: plasma conc.): < 2 ng/mL; concentration at 0.1 h ([2]; pig, plasma, iv, 0.5 mg/kg, pig 2, Time 0.1 hr, i.v. bolus 0.5 mg/kg of SD209, read-out: plasma conc.): 20 ng/mL; concentration at 0.25 h ([2]; pig, plasma, iv, 0.5 mg/kg, pig 2, Time 0.25 hr, i.v. bolus 0.5 mg/kg of SD209, read-out: plasma conc.): 3 ng/mL; concentration at 0.5 h ([2]; pig, plasma, iv, 0.5 mg/kg, pig 2, Time 0.5 hr, i.v. bolus 0.5 mg/kg of SD209, read-out: plasma conc.): < 2 ng/mL; in vivo conversion of prodrug to SM256 in the circulation ([2]; pigs, i.v. 0.5 mg/kg): quantitatively converted to SM256; electrophoretic mobility relative to compound SM192 ([3]; higher than SM192 at all pH values examined): about two-fold"
69.1 ± 0.6,61.7 ± 0.2,53.5 ± 0.3,51.5 ± 0.1,50.4 ± 0.2,49.8 ± 0.4,50.0 ± 0.6,49.5 ± 0.3,–,–,–,–,–,–,–,1.7 (cm^2 /v/sec) × 10^-4,1.6 (cm^2 /v/sec) × 10^-4,1.1 (cm^2 /v/sec) × 10^-4,3.73,COC(=O)C(CNC(=O)c1ccc2c(cnn2CCCNc2ncc[nH]2)c1)NS(=O)(=O)c1c(C)cc(C)cc1C (centres unmarked) [SM192],Surface Tension ([1]; Concentration 0.00015 M): 73.0 ± 0.2 dynes/cm; Surface Tension ([1]; Concentration 0.0003 M): 73.0 ± 0.2 dynes/cm; Surface Tension ([1]; Concentration 0.0006 M): 72.3 ± 0.1 dynes/cm; Surface Tension ([1]; Concentration 0.001 M): 69.3 ± 0.6 dynes/cm; Surface Tension ([1]; Concentration 0.006 M): 56.9 ± 0.4 dynes/cm; critical micelle concentration (CMC) ([1]; from surface tension vs concentration): ~ 16 mM and ~ 11 mg/mL
–,–,–,–,–,–,–,–,BQL,BQL,BQL,BQL,BQL,BQL,BQL,–,–,–,–,Cc1cc(C)c(S(=O)(=O)NC(CNC(=O)c2ccc3c(cnn3CCCNc3ncc[nH]3)c2)C(=O)O)c(C)c1 (centres unmarked) [SM256],–
